Data reported in ChEMBL document CHEMBL1201862, “PubChem BioAssay data set” (2004).
Activity calls are given as the source filed them.

How the values were obtained:
[1] = molecular target: T1, Streptokinase A (Streptococcus pyogenes serotype M1, UniProt P10520); experiment: viability-normalized secreted streptokinase activity reduction – plasminogen activation absorbance, OD405, dose response (AID 1914); assay type: functional, Streptococcus pyogenes M1 GAS;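 note: secreted streptokinase activity via plasminogen activation per viability signal from cell pellet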
T1 sequence (P10520 whole entry): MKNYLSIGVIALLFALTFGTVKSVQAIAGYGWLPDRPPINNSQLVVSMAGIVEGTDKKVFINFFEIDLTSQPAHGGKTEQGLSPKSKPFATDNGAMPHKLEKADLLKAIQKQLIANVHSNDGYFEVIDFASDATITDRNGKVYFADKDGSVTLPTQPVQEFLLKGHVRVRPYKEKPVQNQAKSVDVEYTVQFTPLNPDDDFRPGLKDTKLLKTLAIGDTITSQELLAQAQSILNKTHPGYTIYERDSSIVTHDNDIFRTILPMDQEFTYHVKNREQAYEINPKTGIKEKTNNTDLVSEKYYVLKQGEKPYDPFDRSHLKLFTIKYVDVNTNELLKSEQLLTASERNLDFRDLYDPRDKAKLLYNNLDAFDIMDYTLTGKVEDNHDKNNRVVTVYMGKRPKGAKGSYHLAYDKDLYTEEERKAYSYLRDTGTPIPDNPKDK

[2] = system: Streptococcus; experiment: GAS UMAA2166 growth inhibition – luminescence, BacTiterGlo, counter-screen for streptokinase expression inhibitor project, dose response (AID 1915); assay type: functional, organism-based;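 note: potency for reduction of bacterial viability or growth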
[3] = non-specific 3'UTR reporter inhibition in Clone20-Shn3RL – cell-based, Renilla luciferase, cherry-picked, counter-screen for Shn3 inhibitor project, dose response (AID 624133); assay type: functional
[4] = Trypanosoma cruzi growth suppression in host cells – NIH3T3 host cells, beta-gal luminescence, confirmation (AID 2044); assay type: functional, cell-based;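 note: intracellular parasites grown in NIH/3T3 mouse fibroblasts as host cells; luminescent beta-galactosidase reporter signal from transgenic T. cruzi replicating inside host cells; inhibitors lower the luminescence signal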
[5] = molecular target: T2, Short transient receptor potential channel 4 (Mus musculus, UniProt Q9QUQ5); experiment: block of DAMGO-driven TRPC4 calcium entry – cell-based, HEK293 TRPC4/mu-opioid, Fluo-4 calcium, dose response (AID 434942); assay type: functional;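 note: potency of inhibitors blocking the TRPC4 calcium response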
T2 sequence (Q9QUQ5 whole entry): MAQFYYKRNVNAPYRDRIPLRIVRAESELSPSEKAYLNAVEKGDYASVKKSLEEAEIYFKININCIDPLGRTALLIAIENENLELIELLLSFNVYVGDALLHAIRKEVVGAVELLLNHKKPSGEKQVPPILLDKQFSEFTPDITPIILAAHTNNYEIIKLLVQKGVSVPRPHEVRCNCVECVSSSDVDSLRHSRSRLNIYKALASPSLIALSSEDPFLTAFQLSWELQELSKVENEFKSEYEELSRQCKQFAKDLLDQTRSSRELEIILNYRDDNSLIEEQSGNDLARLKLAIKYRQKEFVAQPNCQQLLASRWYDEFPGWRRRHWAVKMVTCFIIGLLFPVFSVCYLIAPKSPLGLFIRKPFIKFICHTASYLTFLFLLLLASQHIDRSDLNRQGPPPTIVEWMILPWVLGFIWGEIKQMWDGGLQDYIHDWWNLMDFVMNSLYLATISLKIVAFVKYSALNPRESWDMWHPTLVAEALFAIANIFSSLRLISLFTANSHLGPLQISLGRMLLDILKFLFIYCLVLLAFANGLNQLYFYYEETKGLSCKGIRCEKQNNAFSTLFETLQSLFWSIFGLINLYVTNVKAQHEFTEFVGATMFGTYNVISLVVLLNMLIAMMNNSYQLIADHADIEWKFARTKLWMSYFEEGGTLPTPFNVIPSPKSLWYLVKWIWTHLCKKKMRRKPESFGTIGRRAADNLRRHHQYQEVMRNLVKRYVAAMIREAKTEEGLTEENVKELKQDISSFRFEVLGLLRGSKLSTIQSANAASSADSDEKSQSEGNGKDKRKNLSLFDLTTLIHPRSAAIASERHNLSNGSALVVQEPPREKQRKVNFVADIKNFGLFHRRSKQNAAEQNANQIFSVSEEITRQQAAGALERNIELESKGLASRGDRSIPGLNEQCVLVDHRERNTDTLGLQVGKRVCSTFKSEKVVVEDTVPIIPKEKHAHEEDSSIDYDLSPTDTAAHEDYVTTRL

[6] = NIH3T3 cell viability loss – ATP luminescence, mouse fibroblasts, counter-screen, dose response (AID 2010); assay type: functional, cell-based;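 note: cells exposed to compound for about 90 hours before reading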
[7] = loss of viability in HepG2 cells – cell-based, CellTiter-Glo, cherry-picked, cytotoxicity control for Shn3 inhibitor project, dose response (AID 624134); assay type: functional
[8] = system: Streptococcus sp. 'group A'; experiment: Streptococcus pyogenes SK(-)GAS viability under kanamycin – luminescence, BacTiterGlo, confirmation, counter-screen for streptokinase expression inhibitor project, dose response (AID 1900); assay type: functional, organism-based
[9] = reduction of Shn3 3'UTR-driven luciferase in osteoblasts – cell-based, Clone20 osteoblasts, firefly luciferase, cherry-picked, dose response (AID 624132); assay type: functional;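 note: firefly luciferase luminescence from reporter carrying the Shn3 3'UTR in osteoblasts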
[10] = molecular target: Nonstructural protein 1 (Influenza A virus, UniProt Q194T2); assay type: functional, Influenza A virus (A/California/07/2009(H1N1))
[11] = molecular target: Eukaryotic translation initiation factor 4E (Mus musculus, UniProt P63073); experiment: blockers of eIF4G binding by eIF4E – biochemical, TR-FRET, dose response (AID 855); assay type: functional;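 note: potency for disrupting eIF4E binding to eIF4GI seen as loss of FRET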
[12] = blockers of CRF-binding protein–CRF-R2 complex – cell-based, uHTS hits, 384-well, dose response (AID 651639); assay type: functional, Homo sapiens; settings: read-out: IC50_Mean
[13] = molecular target: T3, Corticotropin-releasing factor receptor 2/Corticotropin-releasing factor-binding protein (Homo sapiens, UniProt P24387+Q13324); experiment: activators of CRF receptor 2 with binding protein – uHTS hits, confirmation (AID 602473); assay type: functional; settings: read-out: EC50_Mean
T3 sequence (Q13324 whole entry): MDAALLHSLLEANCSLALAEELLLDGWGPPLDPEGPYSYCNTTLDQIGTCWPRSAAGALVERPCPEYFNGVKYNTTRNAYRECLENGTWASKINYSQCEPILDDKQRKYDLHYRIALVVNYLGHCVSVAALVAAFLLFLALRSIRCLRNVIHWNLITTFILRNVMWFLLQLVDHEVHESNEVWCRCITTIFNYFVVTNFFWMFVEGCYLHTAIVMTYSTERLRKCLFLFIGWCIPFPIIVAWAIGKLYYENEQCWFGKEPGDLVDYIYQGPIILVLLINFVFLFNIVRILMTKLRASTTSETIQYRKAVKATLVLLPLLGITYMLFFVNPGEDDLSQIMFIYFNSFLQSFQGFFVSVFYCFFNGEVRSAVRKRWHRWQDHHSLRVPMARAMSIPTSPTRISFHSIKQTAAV
T3 sequence (P24387 whole entry): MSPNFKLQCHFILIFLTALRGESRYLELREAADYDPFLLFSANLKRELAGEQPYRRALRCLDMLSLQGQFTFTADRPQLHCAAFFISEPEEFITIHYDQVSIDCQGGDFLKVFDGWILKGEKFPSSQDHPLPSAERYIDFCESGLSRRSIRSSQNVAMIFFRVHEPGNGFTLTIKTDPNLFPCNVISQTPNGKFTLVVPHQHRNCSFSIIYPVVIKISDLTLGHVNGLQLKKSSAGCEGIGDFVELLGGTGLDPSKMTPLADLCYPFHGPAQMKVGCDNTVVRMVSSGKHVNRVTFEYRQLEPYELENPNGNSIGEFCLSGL

[14] = molecular target: Cytochrome P450 3A4 (Homo sapiens, UniProt P08684);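 note: CYP3A4 tested as one member of a cytochrome P450 panel screen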
[15] = molecular target: T3, Corticotropin-releasing factor receptor 2/Corticotropin-releasing factor-binding protein; experiment: Dose Response confirmation of uHTS hits for small molecule antagonists of the CRF-binding protein and CRF-R2 receptor complex.; assay type: functional; settings: read-out: IC50_Mean
[16] = molecular target: T4, Protein skinhead-1 (Caenorhabditis elegans, UniProt P34707); assay type: functional
T4 sequence (P34707 whole entry): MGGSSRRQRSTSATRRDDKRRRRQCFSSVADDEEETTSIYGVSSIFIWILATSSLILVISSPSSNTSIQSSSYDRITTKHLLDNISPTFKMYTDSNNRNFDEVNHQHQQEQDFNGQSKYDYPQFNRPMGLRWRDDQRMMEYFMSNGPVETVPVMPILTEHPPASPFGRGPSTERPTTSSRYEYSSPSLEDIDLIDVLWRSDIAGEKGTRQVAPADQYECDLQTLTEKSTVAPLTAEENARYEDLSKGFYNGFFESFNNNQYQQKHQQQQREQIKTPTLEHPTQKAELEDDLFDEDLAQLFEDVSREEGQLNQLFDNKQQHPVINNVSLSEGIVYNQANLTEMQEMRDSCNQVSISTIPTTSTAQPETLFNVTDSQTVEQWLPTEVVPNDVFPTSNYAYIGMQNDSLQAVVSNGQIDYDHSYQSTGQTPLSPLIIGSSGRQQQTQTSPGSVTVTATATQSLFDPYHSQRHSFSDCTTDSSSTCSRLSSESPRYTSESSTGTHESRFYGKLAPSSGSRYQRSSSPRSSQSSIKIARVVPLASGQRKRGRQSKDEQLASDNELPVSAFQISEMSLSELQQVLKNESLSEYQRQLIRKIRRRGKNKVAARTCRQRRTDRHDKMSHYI

[17] = A Cell Based Secondary Assay To Explore Cytotoxicity of Compounds that Sensitize Mycobacterium Tuberculosis to Beta-Lactam Antibiotics.; assay type: functional
[18] = Luminescence Cell-Based Dose Retest to Confirm Inhibitors of Cancer Stem Cells. [Related pubchem assays (depositor defined):AID2717, AID2721]; assay type: functional; settings: Homo sapiens
[19] = molecular target: T5, Calpain-2 catalytic subunit (Sus scrofa, UniProt P43367); experiment: m-calpain protease blockers, concentration series – biochemical, fluorogenic peptide substrate, dose response (AID 1420); assay type: functional
T5 sequence (P43367 whole entry): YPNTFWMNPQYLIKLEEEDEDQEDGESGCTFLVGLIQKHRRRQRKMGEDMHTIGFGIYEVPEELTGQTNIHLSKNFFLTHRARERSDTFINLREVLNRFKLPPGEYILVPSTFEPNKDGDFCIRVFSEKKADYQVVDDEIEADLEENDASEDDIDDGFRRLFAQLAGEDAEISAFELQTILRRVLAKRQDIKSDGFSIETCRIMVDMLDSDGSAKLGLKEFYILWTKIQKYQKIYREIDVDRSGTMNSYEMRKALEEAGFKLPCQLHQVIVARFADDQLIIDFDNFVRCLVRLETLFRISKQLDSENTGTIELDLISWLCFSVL

CCCn1c(NC(=O)c2ccc(Cl)c(S(=O)(=O)N3CCCC3)c2)nc2ccccc21
EC50 [1]: > 150 µM (not active)
EC50 [2]: 11.6 µM (active)
AC50 [3]: 10.9 µM (active)
EC50 [4]: 2.63 µM (active)
EC50 [5]: 1.06 µM (active)
EC50 [6]: 6.63 µM (active)
AC50 [7]: 38.8 µM (active)
EC50 [8]: 3.14 µM (active)
AC50 [9]: 8.39 µM (active)

O=C1NC(=S)N(C2CC2)C(=O)/C1=C/NNC(=O)c1ccccc1O
IC50 [10]: 16.2 µM (active)

COc1ccccc1NC(=S)NCCSc1ccc(Cl)cc1
IC50 [11]: > 64 µM (inactive)

COc1cc(C2C(C(=O)c3ccccc3)=C(O)C(=O)N2c2ccccn2)ccc1O (configuration not stated)
IC50 [11]: 50 µM (inactive)

CCCN1CCN(C(=O)CCCNC(=O)Cn2cnc3sc(C)c(C)c3c2=O)CC1
IC50 [11]: > 64 µM (inactive)

CC(C)N(Cc1nc(-c2ccccc2)no1)C(=O)COc1ccccc1
IC50 [11]: > 64 µM (inactive)

Cc1cc([N+](=O)[O-])ccc1NCc1ccccc1
IC50 [12]: 8.31 µM (active)
EC50 [13]: > 53 µM (inactive)
AC50 [14]: 14.1 µM (inconclusive)
EC50 [5]: 0.841 µM (active)
IC50 [15]: 4.41 µM (active)
IC50 [16]: 66.9 µM (inactive)

CSc1ccc(-c2nnn(CC(=O)NCc3ccccc3)n2)cc1
CC50 [17]: > 40 µM (active)

COc1ccc(CN2CCCCC2C)cc1C (configuration not stated)
IC50 [12]: 20 µM (active)
EC50 [13]: 2.45 µM (active)
IC50 [15]: < 0.368 µM (active)

CN1CCN(c2ccccc2NC(=O)c2ccc(-c3ccc(Cl)c(Cl)c3)o2)CC1
CC50 [17]: 25.2 µM (active)
AC50 [18]: 4.06 µM (active)

COc1cc(NC(=O)c2cc(-c3cccnc3)nc3ccc(Br)cc23)cc(OC)c1
CC50 [17]: > 40 µM (active)

Cc1cc(CN2CCCC(C(=O)Nc3ccc(-c4nc5ccccc5[nH]4)cc3)C2)n[nH]1 (configuration not stated)
EC50 [5]: 0.0003 µM (active)

OC(COC(c1ccccc1)c1ccccc1)CN1CCN(c2cccc(Cl)c2)CC1 (configuration not stated)
CC50 [17]: > 40 µM (active)

Cc1nn(-c2ccccc2)c2c1C(c1ccc(Br)s1)C(C#N)=C(N)O2 (configuration not stated)
IC50 [10]: 76.2 µM (active)
IC50 [19]: > 50 µM (not active)

CCN(CC)CCN(C(=O)c1ccccc1OC)c1nc2ccc(F)cc2s1
EC50 [5]: 2.11 µM (active)

COc1ccc(C2=NN(C(=O)c3ccccc3)C(c3ccc(OC)c(OC)c3)C2)c(O)c1 (configuration not stated)
EC50 [5]: 9.44 µM (active)

Cc1ccc(OCC(COCc2ccccc2)NC(C)C)cc1 (configuration not stated)
EC50 [5]: 3.76 µM (active)

CN(C)C(CNC(=O)CCc1nc2ccccc2s1)c1ccccc1 (configuration not stated)
EC50 [5]: 0.0187 µM (active)

Cc1ccc(C)c(N2CCN(S(=O)(=O)c3ccc4c(c3)C(C)(C)C(=O)N4C)CC2)c1
IC50 [12]: 9.45 µM (active)
EC50 [13]: > 53 µM (inactive)
IC50 [15]: 38.6 µM (active)

Cc1ccc(/C=N/n2c(S)nnc2-c2cccc(Cl)c2)o1
IC50 [12]: > 20 µM (inactive)
EC50 [13]: > 53 µM (inactive)
IC50 [15]: < 0.368 µM (active)

CC(C)=CCC/C(C)=C/C=N/NC(=O)c1ccc([N+](=O)[O-])cc1
CC50 [17]: > 40 µM (active)
